# Data: ChEMBL document CHEMBL5380782, “Design, Biological Evaluation, and Computer-Aided Analysis of Dihydrothiazepines as Selective Antichlamydial Agents” (J Med Chem, 2023)
# Experiments:
# Pseudomonas aeruginosa = assay: Antimicrobial activity against Pseudomonas aeruginosa PA01 assessed as microbial growth inhibition incubated for 24 hrs by TTC staining based assay; type: functional
# Pichia kudriavzevii = assay: Antimicrobial activity against Pichia kudriavzevii 6558 assessed as microbial growth inhibition by broth microdilution method; type: functional
# [1] = Mutagenicity in Salmonella typhimurium TA100 assessed as number of revertants per plate at 500 ug pretreated for 90 mins measured after 66 hrs by AMES test (reference value: 206 +/- 7.07); type: toxicity, Salmonella enterica subsp. enterica serovar Typhimurium; conditions: in vivo, 67.5 h, dose 500 µg
# [2] = Stability of compound in human serum assessed as compound remaining at 2 mg/ml measured after 24 hrs by HPLC analysis; type: ADME, cell-free; conditions: read-out: Stability
# Staphylococcus aureus = assay: Antimicrobial activity against Staphylococcus aureus USA 300 JE2 assessed as microbial growth inhibition incubated for 24 hrs by TTC staining based assay; type: functional
# Blautia producta = assay: Antimicrobial activity against Blautia producta DSM 2950 assessed as microbial growth inhibition incubated for 48 hrs; type: functional
# [3] = Mutagenicity in Salmonella typhimurium TA98 assessed as number of revertants per plate at 1500 ug pretreated for 90 mins measured after 66 hrs by AMES test (reference value: 25.67 +/- 5.51); type: toxicity, Salmonella enterica subsp. enterica serovar Typhimurium; conditions: in vivo, 67.5 h, dose 1500 µg
# [4] = Cytotoxicity against HEK293 cells assessed as cell survival at 256 ug/ml incubated for 20 hrs by XTT assay relative to control; type: toxicity, cell-based; conditions: human, at 256 µg/mL, read-out: Survival
# Chlamydia trachomatis [5] = assay: Antibacterial activity against Chlamydia trachomatis L2 infected in HEp-2 cells assessed as reduction in number of chlamydial inclusion at 3.12 ug/ml incubated for 24 hrs by fluorescence microscopy relative to control; type: functional; set-up: scale not given: the % may be the effect or the level left; conditions: dose 3.12 µg/ml
# [6] = Mutagenicity in Salmonella typhimurium TA100 assessed as number of revertants per plate at 150 ug pretreated for 90 mins measured after 66 hrs in presence of S9 by AMES test (reference value: 201 +/- 9.90); type: toxicity, Salmonella enterica subsp. enterica serovar Typhimurium; conditions: in vivo, 67.5 h, dose 150 µg
# [7] = Mutagenicity in Salmonella typhimurium TA100 assessed as number of revertants per plate at 500 ug pretreated for 90 mins measured after 66 hrs in presence of S9 by AMES test (reference value: 201 +/- 9.90); type: toxicity, Salmonella enterica subsp. enterica serovar Typhimurium; conditions: in vivo, 67.5 h, dose 500 µg
# [8] = Mutagenicity in Salmonella typhimurium TA98 assessed as number of revertants per plate at 5000 ug pretreated for 90 mins measured after 66 hrs in presence of S9 fraction by AMES test (reference value: 24.33 +/- 9.50); type: toxicity, subcellular, Salmonella enterica subsp. enterica serovar Typhimurium; conditions: s9, 67.5 h, dose 5000 µg
# [9] = Mutagenicity in Salmonella typhimurium TA98 assessed as number of revertants per plate at 150 ug pretreated for 90 mins measured after 66 hrs by AMES test (reference value: 25.67 +/- 5.51); type: toxicity, Salmonella enterica subsp. enterica serovar Typhimurium; conditions: in vivo, 67.5 h, dose 150 µg
# Thomasclavelia ramosa = assay: Antimicrobial activity against Clostridium ramosum DSM 1402 assessed as microbial growth inhibition incubated for 48 hrs; type: functional
# [10] = Stability of compound in simulated gastric fluid assessed as compound remaining at 2 mg/ml measured after 24 hrs by HPLC analysis; type: ADME; conditions: read-out: Stability
# [11] = Mutagenicity in Salmonella typhimurium TA98 assessed as mutagenic index ratio at 1500 ug pretreated for 90 mins measured after 66 hrs in presence of S9 fraction by AMES test; type: toxicity, subcellular, Salmonella enterica subsp. enterica serovar Typhimurium; conditions: s9, 67.5 h, dose 1500 µg
# [12] = Mutagenicity in Salmonella typhimurium TA100 assessed as mutagenic index ratio at 50 ug pretreated for 90 mins measured after 66 hrs by AMES test; type: toxicity, Salmonella enterica subsp. enterica serovar Typhimurium; conditions: in vivo, 67.5 h, dose 50 µg
# [13] = Mutagenicity in Salmonella typhimurium TA100 assessed as mutagenic index ratio at 5000 ug pretreated for 90 mins measured after 66 hrs by AMES test; type: toxicity, Salmonella enterica subsp. enterica serovar Typhimurium; conditions: in vivo, 67.5 h, dose 5000 µg
# [14] = Mutagenicity in Salmonella typhimurium TA100 assessed as mutagenic index ratio at 500 ug pretreated for 90 mins measured after 66 hrs in presence of S9 by AMES test; type: toxicity, Salmonella enterica subsp. enterica serovar Typhimurium; conditions: in vivo, 67.5 h, dose 500 µg
# [15] = Mutagenicity in Salmonella typhimurium TA100 assessed as mutagenic index ratio at 1500 ug pretreated for 90 mins measured after 66 hrs by AMES test; type: toxicity, Salmonella enterica subsp. enterica serovar Typhimurium; conditions: in vivo, 67.5 h, dose 1500 µg
# Chlamydia trachomatis [16] = assay: Inhibition of recombinant Chlamydia trachomatis ClpX ATPase activity assessed as reduction in ATP consumption at 25 ug/ml incubated for 60 mins by Kinase Glo assay relative to control; conditions: dose 25.0 µg/ml
# [17] = Stability of compound in simulated gastric fluid assessed as compound remaining at 2 mg/ml measured after 180 mins by HPLC analysis; type: ADME; conditions: read-out: Stability
# [18] = Mutagenicity in Salmonella typhimurium TA98 assessed as number of revertants per plate at 500 ug pretreated for 90 mins measured after 66 hrs in presence of S9 fraction by AMES test (reference value: 24.33 +/- 9.50); type: toxicity, subcellular, Salmonella enterica subsp. enterica serovar Typhimurium; conditions: s9, 67.5 h, dose 500 µg
# [19] = Mutagenicity in Salmonella typhimurium TA98 assessed as number of revertants per plate at 50 ug pretreated for 90 mins measured after 66 hrs in presence of S9 fraction by AMES test (reference value: 24.33 +/- 9.50); type: toxicity, subcellular, Salmonella enterica subsp. enterica serovar Typhimurium; conditions: s9, 67.5 h, dose 50 µg
# [20] = Mutagenicity in Salmonella typhimurium TA100 assessed as number of revertants per plate at 5000 ug pretreated for 90 mins measured after 66 hrs by AMES test (reference value: 206 +/- 7.07); type: toxicity, Salmonella enterica subsp. enterica serovar Typhimurium; conditions: in vivo, 67.5 h, dose 5000 µg
# [21] = test system: Lactiplantibacillus plantarum; assay: Antimicrobial activity against Lactobacillus plantarum DSM 20174 assessed as microbial growth inhibition incubated for 24 hrs; type: functional
# [22] = Mutagenicity in Salmonella typhimurium TA98 assessed as number of revertants per plate at 150 ug pretreated for 90 mins measured after 66 hrs in presence of S9 fraction by AMES test (reference value: 24.33 +/- 9.50); type: toxicity, subcellular, Salmonella enterica subsp. enterica serovar Typhimurium; conditions: s9, 67.5 h, dose 150 µg
# [23] = Mutagenicity in Salmonella typhimurium TA98 assessed as mutagenic index ratio at 50 ug pretreated for 90 mins measured after 66 hrs in presence of S9 fraction by AMES test; type: toxicity, subcellular, Salmonella enterica subsp. enterica serovar Typhimurium; conditions: s9, 67.5 h, dose 50 µg
# [24] = Mutagenicity in Salmonella typhimurium TA98 assessed as mutagenic index ratio at 1500 ug pretreated for 90 mins measured after 66 hrs by AMES test; type: toxicity, Salmonella enterica subsp. enterica serovar Typhimurium; conditions: in vivo, 67.5 h, dose 1500 µg
# [25] = Mutagenicity in Salmonella typhimurium TA100 assessed as mutagenic index ratio at 1500 ug pretreated for 90 mins measured after 66 hrs in presence of S9 by AMES test; type: toxicity, Salmonella enterica subsp. enterica serovar Typhimurium; conditions: in vivo, 67.5 h, dose 1500 µg
# [26] = Mutagenicity in Salmonella typhimurium TA98 assessed as mutagenic index ratio at 500 ug pretreated for 90 mins measured after 66 hrs in presence of S9 fraction by AMES test; type: toxicity, subcellular, Salmonella enterica subsp. enterica serovar Typhimurium; conditions: s9, 67.5 h, dose 500 µg
# [27] = Mutagenicity in Salmonella typhimurium TA98 assessed as number of revertants per plate at 50 ug pretreated for 90 mins measured after 66 hrs by AMES test (reference value: 25.67 +/- 5.51); type: toxicity, Salmonella enterica subsp. enterica serovar Typhimurium; conditions: in vivo, 67.5 h, dose 50 µg
# [28] = test system: Bacteroides thetaiotaomicron; assay: Antimicrobial activity against Bacteroides thetaiotaomicron DSM 2079 assessed as microbial growth inhibition incubated for 48 hrs; type: functional
structure (smiles),measurement,setting,value
N#Cc1ccccc1C1Sc2ccccc2NC2=C1C(=O)c1ccccc12 (stereo not drawn),MIC,Pseudomonas aeruginosa,> 125 µg/mL
same,MIC,Pichia kudriavzevii,> 1000 µg/mL
same,Activity,[1],233
same,"remaining at 24 h, 2 mg/ml",[2],80%
same,MIC,Staphylococcus aureus,> 125 µg/mL
same,MIC,Blautia producta,> 125 µg/mL
same,Activity,[3],39
same,"viability at 20 h, 256 ug/ml",[4],≥ 75%
same,Activity,Chlamydia trachomatis [5],<60%
same,Activity,[6],187
same,Activity,[7],191.5
same,Activity,[8],43.5
same,Activity,[9],34.5
same,MIC,Thomasclavelia ramosa,> 125 µg/mL
same,"remaining at 24 h, 2 mg/ml",[10],70%
same,Ratio,[11],1.25
same,Ratio,[12],0.92
same,Ratio,[13],1.16
same,Ratio,[14],0.95
same,Ratio,[15],1.16
same,inhibition,Chlamydia trachomatis [16],20%
same,"remaining at 3 h, 2 mg/ml",[17],90%
same,Activity,[18],43.5
same,Activity,[19],32
same,Activity,[20],241
same,MIC,[21],> 125 µg/mL
same,Activity,[22],35
same,Ratio,[23],1.31
same,Ratio,[24],1.51
same,Ratio,[25],0.98
same,Ratio,[26],1.78
same,Activity,[27],26
same,MIC,[28],> 125 µg/mL
